Experimental data as given in patent publication US10266577B2, “GLP-1 derivatives, and uses thereof” (Novo Nordisk A/S, priority 2013, dated 2019).
Numbered stars: 1 amine (or outer) side, 2 acyl side, 3 side chain; on linkers, the order of the positions; unused ones are H or OH. Square brackets hold non-standard residues; d marks the D form. Side chains are listed from the residue outwards. Peptide text beside a SMILES is read from it. * marks the point of attachment. C18 diacid = O=C(O)CCCCCCCCCCCCCCCCC(=O)*; γGlu = O=C(O)[C@H](CCC(=O)[*:2])N[*:1]; AEEA = NCCOCCOCC(=O)O; Aib = CC(C)(N)C(=O)O

Legend:
in vivo = settings: male, Göttingen, minipig, iv
human GLP-1 receptor = target: T1, human GLP-1 receptor (Homo sapiens, UniProt P43220); experiment: In vitro potency: CRE luciferase reporter gene assay in BHK cells expressing the human GLP-1 receptor; format: cell-based; settings: whole cell reporter gene assay, BHK clone FCW467-12A/KZ10-1; averages of at least two replicates
T1 construct: expressed in transfected cells; host or cells: BHK cells (parent line BHKTS13), clone FCW467-12A; membrane preparation
T1 sequence (P43220 24-463): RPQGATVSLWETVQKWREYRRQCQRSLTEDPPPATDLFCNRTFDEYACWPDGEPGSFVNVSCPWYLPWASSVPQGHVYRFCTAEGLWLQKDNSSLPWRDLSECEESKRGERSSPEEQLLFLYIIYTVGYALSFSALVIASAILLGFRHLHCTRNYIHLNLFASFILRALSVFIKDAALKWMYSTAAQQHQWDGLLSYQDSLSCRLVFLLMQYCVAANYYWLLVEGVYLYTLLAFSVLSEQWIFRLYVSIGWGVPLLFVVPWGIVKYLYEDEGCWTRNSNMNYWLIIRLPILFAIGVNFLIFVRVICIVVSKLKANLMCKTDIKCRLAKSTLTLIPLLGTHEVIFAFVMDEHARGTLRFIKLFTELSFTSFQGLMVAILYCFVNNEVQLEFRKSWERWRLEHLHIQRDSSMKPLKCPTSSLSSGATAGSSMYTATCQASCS
Description: The purpose of this example is to test the activity, or potency, of the GLP-1 derivatives in vitro. The in vitro potency is the measure of human GLP-1 receptor activation in a whole cell assay.
In vitro potency was determined by measuring the response of the human GLP-1 receptor in a reporter gene assay. The assay was performed in a stably transfected BHK cell line that expresses the human GLP-1 receptor and contains the DNA for the cAMP response element (CRE) coupled to a promoter and the gene for firefly luciferase (CRE luciferase). When the human GLP-1 receptor is activated it results in the production of cAMP, which in turn results in the luciferase protein being expressed. When assay incubation is completed the luciferase substrate (luciferin) is added and the enzyme converts luciferin to oxyluciferin to produce bioluminescence. The luminescence is measured as the readout for the assay.
The cells were cultured at 5% CO2 in Cell Culture Medium. They were aliquoted and stored in liquid nitrogen. Before each assay an aliquot is taken up and washed twice in PBS before being suspended at the desired concentration in the assay specific buffer. For 96-well plates the suspension was made to give a final concentration of 5×10^3 cells/well.
The following chemicals were used in the assay: Pluronic F-68 (10%) (Gibco 2404), human serum albumin (HSA) (Sigma A9511), ovalbumin (Sigma A5503), DMEM w/o phenol red (Gibco 11880-028), 1 M Hepes (Gibco 15630), Glutamax 100× (Gibco 35050) and steadylite plus (PerkinElmer 6016757).
Cell Culture Medium consisted of DMEM medium with 10% FBS (Fetal Bovine Serum; Invitrogen 16140-071), 1 mg/ml G418 (Invitrogen 15140-122), 240 nM MTX (methotrexate; Sigma M9929) and 1% pen/strep (penicillin/streptomycin; Invitrogen 15140-122).
Assay Medium consisted of DMEM w/o phenol red, 10 mM Hepes and 1× Glutamax. The Assay Buffer consisted of 2% ovalbumin and 0.2% Pluronic F-68 in Assay Medium.
1) Cell stocks were thawed in a 37° C. water bath.
2) Cells were washed three times in PBS.
3) The cells were counted and adjusted to 5×10^3 cells/50 μl (1×10^5 cells/ml) in Assay Medium. A 50 μl aliquot of cells was transferred to each well in the assay plate.
4) Stocks of the test compounds and reference compounds were diluted to a concentration of 0.2 pM in Assay Buffer. […] Compounds were tested at the following final concentrations: 1×10^−7 M, 1×10^−8 M; 1×10^−9 M, 1×10^−10 M, 1×10^−11 M, 1×10^−12 M, 1×10^−13 M, and 1×10^−14 M. 6) The assay plate was incubated for 3 h in a 5% CO2 incubator at 37° C. 7) The assay plate was removed from the incubator and allowed to stand at room temperature for 15 min. 8) A 100 μl aliquot of steadylite plus reagent was added to each well of the assay plate (reagent was light sensitive). 9) Each assay plate was covered with aluminum foil to protect it from light and shaken for 30 min at room temperature. 10) Each assay plate was read in a Packard TopCount NXT instrument. Calculations and Results
The data from the TopCount instrument were transferred to GraphPad Prism software. The software performs a non-linear regression (log(agonist) vs response).
A minimum of two replicates was measured for each sample. The reported values are averages of the replicates.

Row | Compound | half-life (in vivo) | EC50 (human GLP-1 receptor)
1 | CC[C@H](C)[C@H](NC(=O)[C@H](Cc1ccccc1)NC(=O)[C@H](CCCCNC(=O)COCCOCCNC(=O)COCCOCCNC(=O)CC[C@H](NC(=O)CCCCCCCCCCCCCCCCC(=O)O)C(=O)O)NC(=O)[C@H](CCCNC(=N)N)NC(=O)[C@H](C)NC(=O)[C@H](C)NC(=O)[C@H](CCC(N)=O)NC(=O)[C@H](CCC(=O)O)NC(=O)[C@H](CCC(=O)O)NC(=O)[C@H](CC(C)C)NC(=O)[C@H](Cc1ccc(O)cc1)NC(=O)[C@H](CO)NC(=O)[C@H](CO)NC(=O)[C@@H](NC(=O)[C@H](CC(=O)O)NC(=O)[C@H](CO)NC(=O)[C@@H](NC(=O)[C@H](Cc1ccccc1)NC(=O)[C@@H](NC(=O)CNC(=O)[C@H](CCC(=O)O)NC(=O)C(C)(C)NC(=O)[C@@H](N)Cc1c[nH]cn1)[C@@H](C)O)[C@@H](C)O)C(C)C)C(=O)N[C@@H](CCCCNC(=O)COCCOCCNC(=O)COCCOCCNC(=O)CC[C@H](NC(=O)CCCCCCCCCCCCCCCCC(=O)O)C(=O)O)C(=O)N[C@@H](Cc1c[nH]c2ccccc12)C(=O)N[C@@H](CC(C)C)C(=O)N[C@H](C(=O)N[C@@H](CCCNC(=N)N)C(=O)NCC(=O)N[C@@H](CCCNC(=N)N)C(=O)N[C@@H](CCCCNC(=O)COCCOCCNC(=O)COCCOCCNC(=O)CC[C@H](NC(=O)CCCCCCCCCCCCCCCCC(=O)O)C(=O)O)C(=O)O)C(C)C [Example 10] (H-H[Aib]EGTFTSDVSSYLEEQAARK([AEEA-AEEA-γGlu-C18 diacid])FIK([AEEA-AEEA-γGlu-C18 diacid])WLVRGRK([AEEA-AEEA-γGlu-C18 diacid])-OH; N-terminus and C-terminus assumed) | 158 h | 0.026 nM
2 | CC[C@H](C)[C@H](NC(=O)[C@H](Cc1ccccc1)NC(=O)[C@H](CCC(=O)O)NC(=O)[C@H](CCCNC(=N)N)NC(=O)[C@H](C)NC(=O)[C@H](C)NC(=O)[C@H](CCC(N)=O)NC(=O)[C@H](CCCCNC(=O)COCCOCCNC(=O)COCCOCCNC(=O)COCCOCCNC(=O)COCCOCCNC(=O)COCCOCCNC(=O)[C@@H](N)CCCCNC(=O)[C@@H](N)CCCCNC(=O)[C@@H](N)CCCCNC(=O)CCCCCCCCCCCCCCCCC(=O)O)NC(=O)[C@H](CCC(=O)O)NC(=O)[C@H](CC(C)C)NC(=O)[C@H](Cc1ccc(O)cc1)NC(=O)[C@H](CCCCNC(=O)COCCOCCNC(=O)COCCOCCNC(=O)COCCOCCNC(=O)COCCOCCNC(=O)COCCOCCNC(=O)[C@@H](N)CCCCNC(=O)[C@@H](N)CCCCNC(=O)[C@@H](N)CCCCNC(=O)CCCCCCCCCCCCCCCCC(=O)O)NC(=O)[C@H](CO)NC(=O)[C@@H](NC(=O)[C@H](CC(=O)O)NC(=O)[C@H](CO)NC(=O)[C@@H](NC(=O)[C@H](Cc1ccccc1)NC(=O)[C@@H](NC(=O)CNC(=O)[C@H](CCC(=O)O)NC(=O)C(C)(C)NC(=O)[C@@H](N)Cc1c[nH]cn1)[C@@H](C)O)[C@@H](C)O)C(C)C)C(=O)N[C@@H](CCCCNC(=O)COCCOCCNC(=O)COCCOCCNC(=O)COCCOCCNC(=O)COCCOCCNC(=O)COCCOCCNC(=O)[C@@H](N)CCCCNC(=O)[C@@H](N)CCCCNC(=O)[C@@H](N)CCCCNC(=O)CCCCCCCCCCCCCCCCC(=O)O)C(=O)N[C@@H](Cc1c[nH]c2ccccc12)C(=O)N[C@@H](CC(C)C)C(=O)N[C@H](C(=O)N[C@@H](CCCNC(=N)N)C(=O)NCC(=O)N[C@@H](CCCNC(=N)N)C(=O)NCC(=O)O)C(C)C [Example 17] | 143 h | 0.018 nM
